# Columns and labels:
# C. albicans ATCC 90028 = experiment: In vitro antimicrobial assay (modified NCCLS), Candida media pH 4.5; type: cell-based, Candida albicans; conditions: Candida albicans
# Colletotrichum fragariae = experiment: 96-well microtiter fungal growth assay; type: cell-based;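 for Mean percent fungal growth inhibition of Colletotrichum fragariae: percent relative to untreated positive growth controls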
# In short: (§1)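 Conidial suspensions adjusted to 1.0×10^6 conidia/mL challenged with compounds at final 0.3, 3.0 and 30.0 μM, duplicate per dose, repeated twice. Incubated at 24±1 °C with 12 h photoperiod; growth measured as absorbance at 620 nm at 48 and 72 h (120 h for Phomopsis). Means compared by ANOVA and Fisher's protected LSD.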
# Botrytis cinerea = experiment: 96-well microtiter fungal growth assay; type: cell-based;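 for Mean percent fungal growth inhibition of Botrytis cinerea: percent relative to untreated positive growth controls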
# [1] = tested on: Colletotrichum gloeosporioides; experiment: 96-well microtiter fungal growth assay; type: cell-based;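 for Mean percent fungal growth inhibition of Colletotrichum gloeosporoides: percent relative to untreated positive growth controls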
# In short: as §1
# Fusarium oxysporum = experiment: 96-well microtiter fungal growth assay; type: cell-based;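 for Mean percent fungal growth inhibition of Fusarium oxysporum: percent relative to untreated positive growth controls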
# In short: as §1
# Colletotrichum acutatum = experiment: 96-well microtiter fungal growth assay; type: cell-based;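 for Mean percent fungal growth inhibition of Colletotrichum acutatum: percent relative to untreated positive growth controls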
# In short: as §1
# C. glabrata ATCC 90030 = experiment: In vitro antimicrobial assay (modified NCCLS), Candida media pH 4.5; type: cell-based, Candida glabrata; conditions: Nakaseomyces glabratus
structure (smiles),measurement,setting,value
"COC(/C=C/c1ccccc1)=C1\C(=O)C=C(C)C1=O [Compound 1, coruscanone A]",IC50,"C. albicans ATCC 90028; ATCC90028, pH 4.5, read-out: IC50 (50% inhibitory concentration)",0.2 µg/mL
same,MFC,"C. albicans ATCC 90028; ATCC90028, C. albicans ATCC 90028, pH 4.5, Table 3, read-out: MFC",0.63 µg/mL
same,MIC,"C. albicans ATCC 90028; ATCC90028, C. albicans ATCC 90028, pH 4.5, Table 3, read-out: MIC",0.31 µg/mL
same,Mean percent fungal growth inhibition of Colletotrichum fragariae,"Colletotrichum fragariae; 0.3 μm, 48 hrs",−14.1 ± 10.8%
same,Mean percent fungal growth inhibition of Colletotrichum fragariae,"Colletotrichum fragariae; 0.3 μm, 72 hrs",−4.8 ± 5.0%
same,Mean percent fungal growth inhibition of Colletotrichum fragariae,"Colletotrichum fragariae; 3.0 μm, 48 hrs",−94.0 ± 1.9%
same,Mean percent fungal growth inhibition of Colletotrichum fragariae,"Colletotrichum fragariae; 3.0 μm, 72 hrs",−54.6 ± 18.7%
same,Mean percent fungal growth inhibition of Colletotrichum fragariae,"Colletotrichum fragariae; 30 μm, 48 hrs",−96.9 ± 1.9%
same,Mean percent fungal growth inhibition of Colletotrichum fragariae,"Colletotrichum fragariae; 30 μm, 72 hrs",−67.4 ± 18.3%
same,IC50,"Colletotrichum fragariae; Colletotrichum fragariae, C. fragariae, 96-well microbioassay, read-out: IC50 (growth inhibition)",< 3.1 µM
same,Mean percent fungal growth inhibition of Botrytis cinerea,"Botrytis cinerea; 0.3 μm, 48 hrs",−7.3 ± 12.8%
same,Mean percent fungal growth inhibition of Botrytis cinerea,"Botrytis cinerea; 0.3 μm, 72 hrs",28.1 ± 8.3%
same,Mean percent fungal growth inhibition of Botrytis cinerea,"Botrytis cinerea; 3.0 μm, 48 hrs",−45.2 ± 16.4%
same,Mean percent fungal growth inhibition of Botrytis cinerea,"Botrytis cinerea; 3.0 μm, 72 hrs",−15.7 ± 10.6%
same,Mean percent fungal growth inhibition of Botrytis cinerea,"Botrytis cinerea; 30 μm, 48 hrs",−69.6 ± 9.8%
same,Mean percent fungal growth inhibition of Botrytis cinerea,"Botrytis cinerea; 30 μm, 72 hrs",−88.4 ± 5.6%
same,IC50,"Botrytis cinerea; Botrytis cinerea, 48 h, read-out: IC50 (growth inhibition)",< 1.55 µM
same,Mean percent fungal growth inhibition of Colletotrichum gloeosporoides,"[1]; 0.3 μm, 48 hrs",37.7 ± 9.0%
same,Mean percent fungal growth inhibition of Colletotrichum gloeosporoides,"[1]; 0.3 μm, 72 hrs",46.7 ± 3.9%
same,Mean percent fungal growth inhibition of Colletotrichum gloeosporoides,"[1]; 3.0 μm, 48 hrs",−79.9 ± 2.8%
same,Mean percent fungal growth inhibition of Colletotrichum gloeosporoides,"[1]; 3.0 μm, 72 hrs",−13.8 ± 3.7%
same,Mean percent fungal growth inhibition of Colletotrichum gloeosporoides,"[1]; 30 μm, 48 hrs",−95.2 ± 2.2%
same,Mean percent fungal growth inhibition of Colletotrichum gloeosporoides,"[1]; 30 μm, 72 hrs",−94.4 ± 1.6%
same,IC50,"[1]; Colletotrichum gloeosporioides, C. gleoesporioides, 96-well microbioassay, read-out: IC50 (growth inhibition)",< 3.1 µM
same,Mean percent fungal growth inhibition of Fusarium oxysporum,"Fusarium oxysporum; 0.3 μm, 48 hrs",2.4 ± 4.7%
same,Mean percent fungal growth inhibition of Fusarium oxysporum,"Fusarium oxysporum; 0.3 μm, 72 hrs",12.2 ± 2.1%
same,Mean percent fungal growth inhibition of Fusarium oxysporum,"Fusarium oxysporum; 3.0 μm, 48 hrs",−76.9 ± 1.6%
same,Mean percent fungal growth inhibition of Fusarium oxysporum,"Fusarium oxysporum; 3.0 μm, 72 hrs",−24.2 ± 3.3%
same,Mean percent fungal growth inhibition of Fusarium oxysporum,"Fusarium oxysporum; 30 μm, 48 hrs",−99.3 ± 0.2%
same,Mean percent fungal growth inhibition of Fusarium oxysporum,"Fusarium oxysporum; 30 μm, 72 hrs",−98.9 ± 0.2%
same,IC50,"Fusarium oxysporum; Fusarium oxysporum, F. oxysporum, 96-well microbioassay, read-out: IC50 (growth inhibition)",< 12.5 µM
same,Mean percent fungal growth inhibition of Colletotrichum acutatum,"Colletotrichum acutatum; 0.3 μm, 48 hrs",49.7 ± 6.6%
same,Mean percent fungal growth inhibition of Colletotrichum acutatum,"Colletotrichum acutatum; 0.3 μm, 72 hrs",38.0 ± 3.0%
same,Mean percent fungal growth inhibition of Colletotrichum acutatum,"Colletotrichum acutatum; 3.0 μm, 48 hrs",−73.1 ± 4.9%
same,Mean percent fungal growth inhibition of Colletotrichum acutatum,"Colletotrichum acutatum; 3.0 μm, 72 hrs",−21.8 ± 4.4%
same,Mean percent fungal growth inhibition of Colletotrichum acutatum,"Colletotrichum acutatum; 30 μm, 48 hrs",−95.8 ± 1.9%
same,Mean percent fungal growth inhibition of Colletotrichum acutatum,"Colletotrichum acutatum; 30 μm, 72 hrs",−97.6 ± 0.8%
same,IC50,"Colletotrichum acutatum; Colletotrichum acutatum, C. acutatum, 96-well microbioassay, read-out: IC50 (growth inhibition)",< 3.1 µM
same,IC50,"C. glabrata ATCC 90030; ATCC90030, pH 4.5, read-out: IC50 (50% inhibitory concentration)",2.5 µg/mL
same,MIC,"C. glabrata ATCC 90030; ATCC90030, C. glabrata ATCC 90030, pH 4.5, read-out: MIC",5 µg/mL
